In this assay the test system is Fusarium crown rot (FCR) of wheat, Fusarium pseudograminearum G14LY24-2. The experiment in a line: Field effect of seed coating on controlling FCR of wheat (inoculated field disease nurseries). It is filed as in vivo. The following applies: for Average disease rating: grading 0-5. The protocol:
Wheat grains are soaked for 12 h, sterilized for 60 min, allowed to stand for two days, sterilized for 30-60 min, and cooled for later use. Fusarium pseudograminearum G14LY24-2 was selected on a PDA plate. After growing for three days, marginal hyphae were picked to grow on a fresh PDA plate. After three days, the hyphal pellets were plated into a wheat grain polyethylene bag with sterilized wheat grains. The hyphal pellets grew at room temperature for two weeks until the fungi grew all over wheat grains, and stored in a refrigerator at 4° C. after air-drying.
Disease nurseries were constructed in a 1:1 ratio of seed quantity to inoculum volume ratio. The inoculation was located 3-5 cm above the seed. The seeds to be sown and the inoculum were mixed first, and after mixing well, well-mixed sowing materials were sown by a planter.
Selected C. globosum strains were activated on a fresh PDA, and hyphal pellets were picked into 9 cm PDA Petri dishes. After 15 days, perithecia were ground in sterile water using a spreading rod, and ascospore suspension was controlled at about 100 mL, with a concentration of 1.0-2.0×10^7 ascospores/mL; in case of a low concentration, the suspension was centrifuged at 3,000 rpm for 5 min, dewatered, and resuspended. 75 mL of fungal suspension (approximately 1.3×10^7 ascospores/mL) was mixed with 25 mL of 4 wt % carboxymethyl cellulose salt solution into 100 mL of fungal suspension with 1% carboxymethyl cellulose salt (approximately 1.0×10^7 ascospores/mL). 100 mL of 1×10^7 ascospores/mL fungal suspension with 1% carboxymethyl cellulose salt was mixed well with 5 kg of wheat seeds. Chaetomium globosum strain 12XP1-2-3-coated seeds were rinsed and spread on a plate to count spores on the seed surface, which was 5.0-5.3×10^4 ascospores per seed. The wheat cultivar in 2018 was “Bainong 207”, the wheat cultivar in 2019 was “Aikang 58”, the control agent was 30 g/L difenoconazole, and the seeds were dressed in an agent-to-seed ratio of 1:333.
Field sampling method: At the seedling stage, the emergence rate was investigated, and the plant height, tap root length, fresh weight, dry weight, and colonization ability of C. globosum were measured; at the tillering stage, the morbidity was investigated, and the plant height, tap root length, fresh weight, dry weight, tiller number, and colonization ability of C. globosum were measured; the morbidity was investigated at the jointing stage; the white ear rate was investigated at the filling stage. The method was to investigate the number of white heads and total number of ears per 1 m2 plot and calculate the white ear rate of the plot. The diseased stem rate was investigated at the maturing stage; 20 stems were sampled at five points in each plot, a total of 100 stems for each treatment were brought back to the laboratory, and leaf sheaths were removed thoroughly to determine the disease rating.
The grading standard for adult stage was as follows: 0=no disease; 1=browning in the first node; 2=browning in the second node; 3=browning in the third node; 4=browning in the peduncle or white ears at the filling stage; and 5=diseased plant without ear bearing. The yield was determined during harvest.

[1] abbreviates: “Aikang 58” in Wenxian in 2019, wheat filling stage.
[2] abbreviates: “Bainong 207” in Kaifeng in 2018, wheat filling stage.

`CC1COC(Cn2cncn2)(c2ccc(Oc3ccc(Cl)cc3)cc2Cl)O1` (stereo not drawn) [Difenoconazole, difenoconazole]: under setting [1], the Disease index came out at 9.4, the “Diseased stem rate %” value came out at 26.0% and the Average disease rating worked out at 0.5. Besides, under setting [2], the Disease index was determined as 12.9, the “Diseased stem rate %” value was determined as 30.0% and the Average disease rating came to 0.6.

For the origin of these results see patent US11998016B2, “Use of Chaetomium globosum strain in controlling fusarium crown rot of wheat” (priority 2020, dated 2024).
